Data as given in patent publication US5561139A, “Substituted alicyclic-aliphatic amine-containing macrocyclic immunomodulators” (Abbott Laboratories, priority 1995, dated 1996).

system: human mixed lymphocyte reaction (MLR); test: human mixed lymphocyte reaction (MLR) assay, immunosuppressant activity; format: cell-based; conditions: Table 1
Experimental: Example 68; In Vitro Assay of Biological Activity
The immunosuppressant activity of the compounds of the present invention was determined using the human mixed lymphocyte reaction (MLR) assay described by Kino, T. et al. in Transplantation Proceedings XIX(5);36-39, Suppl. 6 (1987), incorporated herein by reference.

IC50, < 1000 nM:
CC[C@@H]1/C=C(\C)C[C@H](C)C[C@H](OC)[C@H]2O[C@@](O)(C(=O)C(=O)N3CCCC[C@H]3C(=O)O[C@H](/C(C)=C/[C@@H]3CC[C@H](NCCN4CCOCC4)[C@H](OC)C3)[C@H](C)[C@@H](O)CC1=O)[C@H](C)C[C@@H]2OC [Example 5]
CC[C@@H]1/C=C(\C)C[C@H](C)C[C@H](OC)[C@H]2O[C@@](O)(C(=O)C(=O)N3CCCC[C@H]3C(=O)O[C@H](/C(C)=C/[C@@H]3CC[C@H](NC4CCN(Cc5ccccc5)CC4)[C@H](OC)C3)[C@H](C)[C@@H](O)CC1=O)[C@H](C)C[C@@H]2OC [Example 8]
CC[C@@H]1/C=C(\C)C[C@H](C)C[C@H](OC)[C@H]2O[C@@](O)(C(=O)C(=O)N3CCCC[C@H]3C(=O)O[C@H](/C(C)=C/[C@@H]3CC[C@H](NCCCN4CCCCC4)[C@H](OC)C3)[C@H](C)[C@@H](O)CC1=O)[C@H](C)C[C@@H]2OC [Example 9]
CC[C@@H]1/C=C(\C)C[C@H](C)C[C@H](OC)[C@H]2O[C@@](O)(C(=O)C(=O)N3CCCC[C@H]3C(=O)O[C@H](/C(C)=C/[C@@H]3CC[C@H](NCCCN4CCN(C)CC4)[C@H](OC)C3)[C@H](C)[C@@H](O)CC1=O)[C@H](C)C[C@@H]2OC [Example 12]
CC[C@@H]1/C=C(\C)C[C@H](C)C[C@H](OC)[C@H]2O[C@@](O)(C(=O)C(=O)N3CCCC[C@H]3C(=O)O[C@H](/C(C)=C/[C@@H]3CC[C@H](NCCCN4CCOCC4)[C@H](OC)C3)[C@H](C)[C@@H](O)CC1=O)[C@H](C)C[C@@H]2OC [Example 17]
CC[C@@H]1/C=C(\C)C[C@H](C)C[C@H](OC)[C@H]2O[C@@](O)(C(=O)C(=O)N3CCCC[C@H]3C(=O)O[C@H](/C(C)=C/[C@@H]3CC[C@H](NCCN4CCNCC4)[C@H](OC)C3)[C@H](C)[C@@H](O)CC1=O)[C@H](C)C[C@@H]2OC [Example 18]
CC[C@@H]1/C=C(\C)C[C@H](C)C[C@H](OC)[C@H]2O[C@@](O)(C(=O)C(=O)N3CCCC[C@H]3C(=O)O[C@H](/C(C)=C/[C@@H]3CC[C@H](NCCN4CCCC4)[C@H](OC)C3)[C@H](C)[C@@H](O)CC1=O)[C@H](C)C[C@@H]2OC [Example 19]
CC[C@@H]1/C=C(\C)C[C@H](C)C[C@H](OC)[C@H]2O[C@@](O)(C(=O)C(=O)N3CCCC[C@H]3C(=O)O[C@H](/C(C)=C/[C@@H]3CC[C@H](N(CCO)CCN4CCOCC4)[C@H](OC)C3)[C@H](C)[C@@H](O)CC1=O)[C@H](C)C[C@@H]2OC [Example 30]
CC[C@@H]1/C=C(\C)C[C@H](C)C[C@H](OC)[C@H]2O[C@@](O)(C(=O)C(=O)N3CCCC[C@H]3C(=O)O[C@H](/C(C)=C/[C@@H]3CC[C@@H](NCCCN4CCCCC4)[C@H](OC)C3)[C@H](C)[C@@H](O)CC1=O)[C@H](C)C[C@@H]2OC [Example 47]
